# Measurements published in patent US6362188B1, “Farnesyl protein transferase inhibitors” (Schering Corporation, priority 1998, dated 2002).
# Key:
# Human tumor cells = experiment: Soft Agar Assay (anchorage-independent growth); format: cell-based; conditions: colony outgrowth in soft agar, stated as a range for the group
# In short: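 Tumor cells suspended in 0.3% agarose over a 0.6% agarose base, both layers containing the same farnesyl transferase inhibitor concentration. Incubated 10-16 days at 37° C, 5% CO2; colonies stained with MTT (1 mg/mL in PBS) and counted, IC50 determined.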
Structure (SMILES),IC50 (Human tumor cells),melting point
CC(C)(C)NC(=O)N1CCN([C@@H]2c3ccc(Cl)cc3CCc3cc(Br)cnc32)C[C@@H]1C(=O)N1CCC[C@@H](Cn2ccnc2)C1 [Example 16],0.5 to 30 nM,148 to 153 °C
CC(C)(C)OC(=O)N1CCN(C2c3ccc(Cl)cc3CCc3cccnc32)CC1C(=O)N1CCCC(Cn2ccnc2)C1 (centres unmarked) [Example 24],0.5 to 30 nM,115 to 126 °C
Cc1nccn1CC1CCCN(C(=O)C2CN(C3c4ccc(Cl)cc4CCc4cccnc43)CCN2C(=O)OC(C)(C)C)C1 (centres unmarked) [Example 26],0.5 to 30 nM,120 to 132 °C
Cc1cn(CC2CCCN(C(=O)C3CN(C4c5ccc(Cl)cc5CCc5cccnc54)CCN3C(=O)OC(C)(C)C)C2)cn1 (centres unmarked) [Example 28],0.5 to 30 nM,115 to 132 °C
Cc1cn(CC2CCCCN(C(=O)C3CN(C4c5ccc(Cl)cc5CCc5cccnc54)CCN3C(=O)OC3CCCCC3)C2)cn1 (centres unmarked) [Example 47(CC)],0.05 to 30 nM,108 to 113 °C
Cc1nccn1C[C@H]1CCCN(C(=O)[C@H]2CN([C@H]3c4ccc(Cl)cc4CCc4cccnc43)CCN2C(=O)NC(C)(C)C)C1 [Example 48],0.5 to 30 nM,111 to 140 °C
Cc1cn(C[C@@H]2CCCN(C(=O)[C@H]3CN([C@H]4c5ccc(Cl)cc5CCc5cc(Br)cnc54)CCN3C(=O)Cc3ccc(F)cc3)C2)cn1 [Example 197],0.05 to 30 nM,105 to 110 °C
Cc1cn(C[C@@H]2CCCN(C(=O)[C@H]3CN([C@H]4c5ccc(Cl)cc5CCc5cc(Cl)cnc54)CCN3C(=O)OC(C)(C)C)C2)cn1 [Example 227],0.05 to 30 nM,100 to 116 °C
Cc1cn(C[C@@H]2CCCN(C(=O)[C@H]3CN([C@@H]4c5ccc(Cl)cc5CCc5cc(Cl)cnc54)CCN3C(=O)OC(C)(C)C)C2)cn1 [Example 228],0.05 to 30 nM,115 to 128 °C
Cc1cn(C[C@H]2CCCN(C(=O)[C@H]3CN([C@H]4c5ccc(Cl)cc5CCc5cc(Cl)cnc54)CCN3C(=O)OC(C)(C)C)C2)cn1 [Example 229],0.05 to 30 nM,102 to 113 °C
Cc1cn(CC2CCCN(C(=O)C3CN(C4c5ccc(Cl)cc5CCc5cc(Cl)cnc54)CCN3C(=O)OC(C)(C)C)C2)cn1 (centres unmarked) [Example 230],0.05 to 30 nM,121 to 127 °C
Cc1cn(C[C@@H]2CCCN(C(=O)[C@H]3CN([C@H]4c5ccc(Cl)cc5CCc5cc(Cl)cnc54)CCN3C(=O)OC3CCCCC3)C2)cn1 [Example 255],0.05 to 30 nM,116 to 126 °C
Cc1cn(C[C@@H]2CCCN(C(=O)[C@H]3CN([C@@H]4c5ccc(Cl)cc5CCc5cc(Cl)cnc54)CCN3C(=O)OC3CCCCC3)C2)cn1 [Example 256],0.05 to 30 nM,122 to 128 °C
Cc1cn(C[C@H]2CCCN(C(=O)[C@H]3CN([C@H]4c5ccc(Cl)cc5CCc5cc(Cl)cnc54)CCN3C(=O)OC3CCCCC3)C2)cn1 [Example 257],0.05 to 30 nM,115 to 128 °C
Cc1cn(C[C@H]2CCCN(C(=O)[C@H]3CN([C@@H]4c5ccc(Cl)cc5CCc5cc(Cl)cnc54)CCN3C(=O)OC3CCCCC3)C2)cn1 [Example 258],0.05 to 30 nM,115 to 128 °C
Cc1cn(C[C@@H]2CCCN(C(=O)[C@H]3CN([C@H]4c5ccc(Cl)cc5CCc5cc(F)cnc54)CCN3C(=O)OC(C)(C)C)C2)cn1 [Example 259],0.05 to 30 nM,126 to 135 °C
Cc1cn(C[C@@H]2CCCN(C(=O)[C@H]3CN([C@@H]4c5ccc(Cl)cc5CCc5cc(F)cnc54)CCN3C(=O)OC(C)(C)C)C2)cn1 [Example 260],0.05 to 30 nM,110 to 116 °C

Structure (SMILES),IC50 (Human tumor cells),melting point
Cc1cn(C[C@H]2CCCN(C(=O)[C@H]3CN([C@H]4c5ccc(Cl)cc5CCc5cc(F)cnc54)CCN3C(=O)OC(C)(C)C)C2)cn1 [Example 261],0.05 to 30 nM,115 to 118 °C
Cc1cn(C[C@H]2CCCN(C(=O)[C@H]3CN([C@@H]4c5ccc(Cl)cc5CCc5cc(F)cnc54)CCN3C(=O)OC(C)(C)C)C2)cn1 [Example 262],0.05 to 30 nM,122 to 126 °C
Cc1cn(CC2CCCN(C(=O)C3CN(C4c5ccc(Cl)cc5CCc5cc(F)cnc54)CCN3C(=O)OC3CCCCC3)C2)cn1 (centres unmarked) [Example 287],0.05 to 30 nM,116 to 123 °C
Cc1cn(C[C@@H]2CCCN(C(=O)[C@H]3CN([C@@H]4c5ccc(Cl)cc5CCc5cc(F)cnc54)CCN3C(=O)OC3CCCCC3)C2)cn1 [Example 288],0.05 to 30 nM,128 to 134 °C
Cc1cn(C[C@H]2CCCN(C(=O)[C@H]3CN([C@H]4c5ccc(Cl)cc5CCc5cc(F)cnc54)CCN3C(=O)OC3CCCCC3)C2)cn1 [Example 289],0.05 to 30 nM,120 to 126 °C
Cc1cn(C[C@H]2CCCN(C(=O)[C@H]3CN([C@@H]4c5ccc(Cl)cc5CCc5cc(F)cnc54)CCN3C(=O)OC3CCCCC3)C2)cn1 [Example 290],0.05 to 30 nM,121 to 125 °C
Cc1cn(CC2CCCN(C(=O)C3CN(C4c5ccccc5CCc5cc(Cl)cnc54)CCN3C(=O)OC(C)(C)C)C2)cn1 (centres unmarked) [Example 292],0.05 to 30 nM,95 to 105 °C
Cc1cn(C[C@H]2CCCN(C(=O)[C@H]3CN([C@@H]4c5ccccc5CCc5cc(Cl)cnc54)CCN3C(=O)OC(C)(C)C)C2)cn1 [Example 294],0.05 to 30 nM,102 to 118 °C
Cc1cn(C[C@@H]2CCCN(C(=O)[C@H]3CN([C@H]4c5ccccc5CCc5cc(Cl)cnc54)CCN3C(=O)OC3CCCCC3)C2)cn1 [Example 319],0.05 to 30 nM,114 to 118 °C
Cc1cn(C[C@@H]2CCCN(C(=O)[C@H]3CN([C@@H]4c5ccccc5CCc5cc(Cl)cnc54)CCN3C(=O)OC3CCCCC3)C2)cn1 [Example 320],0.05 to 30 nM,115 to 120 °C
Cc1cn(C[C@H]2CCCN(C(=O)[C@H]3CN([C@H]4c5ccccc5CCc5cc(Cl)cnc54)CCN3C(=O)OC3CCCCC3)C2)cn1 [Example 321],0.05 to 30 nM,112 to 121 °C
Cc1cn(C[C@H]2CCCN(C(=O)[C@H]3CN([C@@H]4c5ccccc5CCc5cc(Cl)cnc54)CCN3C(=O)OC3CCCCC3)C2)cn1 [Example 322],0.05 to 30 nM,117 to 125 °C
Cc1cn(C[C@@H]2CCCN(C(=O)[C@H]3CN([C@H]4c5ccccc5CCc5cc(Br)cnc54)CCN3C(=O)OC(C)(C)C)C2)cn1 [Example 323],0.05 to 30 nM,109 to 124 °C
Cc1cn(C[C@@H]2CCCN(C(=O)[C@H]3CN([C@@H]4c5ccccc5CCc5cc(Br)cnc54)CCN3C(=O)OC(C)(C)C)C2)cn1 [Example 324],0.05 to 30 nM,102 to 119 °C
Cc1cn(C[C@@H]2CCCN(C(=O)[C@H]3CN([C@H]4c5ccccc5CCc5cc(Br)cnc54)CCN3C(=O)OC3CCCCC3)C2)cn1 [Example 351],0.05 to 30 nM,120 to 124 °C
Cc1cn(C[C@@H]2CCCN(C(=O)[C@H]3CN([C@@H]4c5ccccc5CCc5cc(Br)cnc54)CCN3C(=O)OC3CCCCC3)C2)cn1 [Example 352],0.05 to 30 nM,122 to 125 °C
Cc1cn(C[C@H]2CCCN(C(=O)[C@H]3CN([C@H]4c5ccccc5CCc5cc(Br)cnc54)CCN3C(=O)OC3CCCCC3)C2)cn1 [Example 353],0.05 to 30 nM,121 to 127 °C
